# Assay results reported in PMC10541411 (Nature Communications, 2023).
# Experiments:
# [1] = system: 53BP1^FFR-PN IRIF in U2OS cells; assay: 53BP1FFR ionizing radiation-induced foci (IRIF) formation, immunofluorescence, PN mutant; assay type: cell-based, Homo Sapiens; conditions: 1 Gy X-ray, different concentrations of UNC3474
# Excerpt: (§1) The foci-forming region (FFR; residues 1220–1711) of wild-type 53BP1 and mutants E1549P/D1550N (53BP1^FFR-PN) and E1549C/E1567C (53BP1^FFR-CC) were inserted into the retroviral vector POZ. The primers used to introduce the E1549P/D1550N mutations are: […] (forward) and […] (reverse). The primers used to introduce the E1549C/E1567C mutations are: […] (forward) and […] (reverse). The 53BP1^FFR constructs were stably expressed at a moderate level in U2OS cells. To probe the effect of UNC3474 on 53BP1^FFR IRIF formation, U2OS cells were grown on glass coverslips, pre-incubated for 1 h with various concentrations of UNC3474 and exposed to 1 Gy of X-ray radiation. After 1 h, the cells were fixed in 4% formaldehyde in PBS for 15 min at room temperature and blocked and permeabilized for 1 h in PBS containing 0.3% Triton X-100, 1% BSA, 10% fetal bovine serum. […]
# (§2) Cell samples were subjected to z-stack scanning with a total depth of 5 μm to comprehensively capture all 53BP1^FFR and γH2A.X IRIF within the cell nuclei, which were fluorescently labeled with DAPI. […] To assess the quantification of 53BP1^FFR and γH2A.X foci per nuclei, a customized CellProfiler (version 3.0)[68] pipeline was employed. […]
# 53BP1^TT = target: T1, 53BP1^TT (Homo sapiens, UniProt Q12888); assay: Sedimentation velocity analytical ultracentrifugation (AUC); conditions: 53BP1TT 20 μM, UNC3474 10-200 μM
# T1 construct: The tandem Tudor domain of 53BP1 (53BP1^TT, residues 1481–1603) was purified as previously described; made in house; host or cells: E. coli (only for the SAXS sample)
# Description: The AUC experiments were performed at 20 °C in 20 mM sodium phosphate, pH 7.5, with 50 mM NaCl. 53BP1^TT was at a concentration of 20 μM. Measurements were recorded on an Optima analytical ultracentrifuge (Beckman Coulter) with an An-50 Ti analytical 8-place rotor using absorbance detection at 280 nm. Sample-filled AUC cells assembled with 12-mm charcoal-filled Epon centerpieces and quartz windows were subjected to 3 h of equilibration at 20 °C under vacuum prior to initiating the experiments at 50,000 rpm (corresponding to 182,000 × g at the cell center and 201,600 × g at the cell bottom) with continuous data acquisition for 20 h (200 scans) at 20 °C. The AUC data were analyzed with the c(s) model in SEDFIT[66] using a partial specific volume of 0.7335 mL/g.
# [2] = system: WT 53BP1^FFR IRIF in U2OS cells; assay: 53BP1FFR ionizing radiation-induced foci (IRIF) formation, immunofluorescence, WT; assay type: cell-based, Homo Sapiens; conditions: 1 Gy X-ray, different concentrations of UNC3474
# Excerpt: as §1, §2
# 53BP1^TT WT = 53BP1^TT WT (Homo sapiens, UniProt Q12888); assay: 1H-15N HSQC NMR titration of 15N-labeled wild-type 53BP1TT; assay type: binding; design: The tandem Tudor domain of 53BP1 (53BP1^TT, residues 1481–1603) was purified as previously described; made in house; host or cells: E. coli (only for the SAXS sample); conditions: 15N-labeled WT 53BP1TT
# Description: All NMR data were collected at 25 °C on a 700 MHz Bruker Avance III spectrometer equipped with a cryoprobe. Data were processed and analyzed with NMRPipe[54] and NMRViewJ[55],[56].
# To probe chemical shift perturbations, ^1H-^15N HSQC spectra were acquired on the following samples: 0.2 mM ^15N-labeled 53BP1^TT WT and 53BP1^TT-PN in 25 mM sodium phosphate, pH 7.0, 1.5 mM NaN3, 0.3 mM DSS, 90% H2O/10% D2O, free and incrementally titrated with various non-labeled inhibitors (UNC1078, UNC1118, UNC2170, UNC2991, UNC3474), as well as with H4KC20me2 and p53K382me2 peptides. Chemical shift perturbations (Δδ) were calculated using the Eq. (1):1 Δδ=(ΔN/5)^2+ΔH^2 where ΔN and ΔH are the corresponding differences in ^15N and ^1H chemical shifts between the bound and free forms of 53BP1.
# T1 sequence (Q12888 1481-1603): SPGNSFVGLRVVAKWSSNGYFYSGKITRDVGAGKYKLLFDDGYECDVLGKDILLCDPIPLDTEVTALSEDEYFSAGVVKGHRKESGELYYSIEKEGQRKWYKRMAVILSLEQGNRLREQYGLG
# Chain of 53BP1^TT WT (Q12888 1481-1603): as above
smiles,measurement,setting,value
CC(C)c1cccc(C(=O)NCCCNC(C)(C)C)c1 [UNC3474],53BP1FFR-PN IRIF,[1],no significant change
same,change in sedimentation coefficient of 53BP1TT,53BP1^TT,consistent with the dimerization of 53BP1^TT
same,WT 53BP1FFR IRIF formation,[2],inhibited in a dose-dependent manner
same,changes in signal positions in the 1H-15N HSQC spectrum of 53BP1TT upon titration,53BP1^TT WT,slow exchange on the chemical shift time scale
